According to publication PMC3848067 (Acta Naturae, 2013):
Like-named read-outs stand apart in the source and are kept apart here.

Tests used:
dogs = settings: intragastric, 166 mg/kg daily for 4 weeks; cited from earlier work
[1] = pharmacokinetics after single-dose oral administration to dogs; settings: comparison from Table 2
rats [2] = settings: Wistar rats, intragastric 133 mg/kg daily, 10 weeks males and 2 weeks females; cited from earlier work
HIV-1 = settings: cited from earlier work
rats [3] = settings: cited from earlier work
MT-4 cells = settings: MT-4 cell line; cited from earlier work
[4] = single oral dose of phosphonate 2, 200 mg/kg; cited from earlier work
mice [5] = settings: cited from earlier work
[6] = rabbits; cited from earlier work
[7] = extrapolated for single-dose oral administration of 600 mg of phosphonate 2
[8] = dogs, 50 mg (2–5 mg/kg), cited from earlier work
[9] = rabbits, single oral dose of 7, 70 and 200 mg/kg; cited from earlier work
Salmonella typhimurium = settings: concentrations of up to 1 mg/dish; cited from earlier work
[10] = test system: bone marrow cells of hybrid mice F1(CBAxC57Bl6); settings: doses 50-fold higher than maximum recommended therapeutic dose for humans; cited from earlier work
rats [11] = settings: intragastric, 133 and 266 mg/kg daily for 3 months; cited from earlier work
guinea pigs [12] = settings: sensibilizing doses 133 and 266 mg/kg, provoking dose 266 mg/kg on days 14 and 21; cited from earlier work
[13] = rats, oral, 20 mg/kg; cited from earlier work
[14] = dogs, cited from earlier work; for AUC / Cmax / Cmax/AUC / MRT / t1/2 / tmax: value for the tested compound (2 or its metabolite AZT)
pregnant female rats = settings: intragastric 133 mg/kg daily on days 1–19 of gestation; cited from earlier work
guinea pigs [15] = settings: doses and sensibilization schemes tested; cited from earlier work
mice [16] = settings: cited from earlier work; remark: listed apart in the source
[17] = rabbits, oral course, 1 g in 4–5 ml of water, after 6 and 18 h during 5 days; cited from earlier work
[18] = canine whole blood at 37°С; cited from earlier work
[19] = rats, intraperitoneal, 20 mg/kg; parameters of phosphonate 2; cited from earlier work
cultured cells = settings: cited from earlier work
[20] = cited from earlier work
mouse embryonic cells = settings: doses 50-fold higher than maximum recommended therapeutic dose for humans; cited from earlier work
mice [21] = settings: cited from earlier work; remark: listed apart in the source
[22] = single oral dose of capsules of 2, 10 mg/kg
[23] = single oral dose of capsules of 2, 20 mg/kg
[24] = single oral dose of capsules of 2, 40 mg/kg

For `Cc1cn([C@H]2C[C@H](N=[N+]=[N-])[C@@H](COP(=O)(O)C(N)=O)O2)c(=O)[nH]c1=O` [Compound 2, AZT 5’-aminocarbonyl phosphonate], the “tolerability, capsules” value (dogs) is given as “well-tolerated by the animals”, the “Cmax of AZT, times lower than for phosphazide” value [1] is given as 2.5 times and the “effect on animal reproduction function” value (rats [2]) is given as “no effects”. The “antiviral activity (inhibition of viral replication) relative to AZT” value (HIV-1; HIV-infected MT-4 cells) was “inferior to that of AZT by about an order of magnitude”, the “antiviral activity, times lower than that of phosphazide” value (HIV-1; MT-4 cell line) was 3–4.5 times and the “selectivity index compared to AZT and phosphazide” value (HIV-1; MT-4 cell line) was “higher”. The “signs after single-dose administration at toxic doses” value (rats [3]; rats, 2000–50000 mg/kg) was “short-term agitation in animals replaced by distress, inertness and adynamia”, the LD50 (rats [3]; single-dose intragastric administration to rats) was “higher than 40 g/kg” and the “toxicity, times lower than that of AZT” value (MT-4 cells) was 34–50 times. For the same compound, the “toxicity, times lower than that of phosphazide” value (MT-4 cells) was 12.5–15 times, the “original substance in daily urine and feces” value [4] was “could not be detected” and the “popliteal lymph node reaction” value (mice [5]) was “not to affect the popliteal lymph node reaction”. The “AZT in peripheral blood after intravenous administration” value [6] was “AZT has not been detected”, the “expected AZT concentration in human blood plasma” value [7] was 100 to 115 ng/mL and the “AZT in blood plasma after intravenous administration” value [8] was “No AZT has been detected”. The AUC t ([8]; intravenous, parameters of 2) was 2190 ng·h/mL, the CL ([8]; intravenous, parameters of 2) was 16.8 L/h and the MRT ([8]; intravenous, parameters of 2) was 0.74 h. For the same compound, the Vss ([8]; intravenous, parameters of 2) was 12.4 L, the t1/2 ([8]; intravenous, parameters of 2) was 0.35 h and the “presence of AZT in blood” value [9] was “AZT is present in the blood in all the cases”. The “number of revertants in the Ames test” value (Salmonella typhimurium) was “does not increase the number of revertants”, the “chromosomal aberrations in mouse bone marrow cells” value [10] was “neither caused an increase in the number of chromosomal aberrations” and the “tolerability, chronic administration” value (rats [11]) was “well-tolerated by animals”. For the same compound, the anaphylactic shock (guinea pigs [12]) was “no anaphylactic shock”, the “original phosphonate 2 in blood plasma” value [13] was “No original phosphonate 2 was detected” and the “bioavailability of 5’-aminocarbonyl phosphonate 2” value ([14]; administered orally at specified doses) was 4.7%. For the same compound, the “bioavailability of AZT after 2 had been administered orally” value ([14]; oral) was 8%, the AUC [14, 22] was 470 ± 150 ng·h/mL and the Cmax [14, 22] was 310 ± 90 ng/mL. The Cmax/AUC [14, 22] was 0.662 ± 0.066 h⁻¹, the MRT [14, 22] was 2.43 ± 0.04 h and the t1/2 [14, 22] was 0.62 ± 0.1 h. For the same compound, the tmax [14, 22] was 1.5 ± 0.25 h, the AUC [14, 23] was 980 ± 440 ng·h/mL and the Cmax [14, 23] was 510 ± 180 ng/mL. For the same compound, the Cmax/AUC [14, 23] was 0.561 ± 0.122 h⁻¹, the MRT [14, 23] was 2.65 ± 0.16 h and the t1/2 [14, 23] was 0.81 ± 0.2 h. The tmax [14, 23] was 1.6 ± 0.2 h, the AUC [14, 24] was 1250 ± 860 ng·h/mL and the Cmax [14, 24] was 510 ± 260 ng/mL. For the same compound, the Cmax/AUC [14, 24] was 0.478 ± 0.117 h⁻¹, the MRT [14, 24] was 2.87 ± 0.49 h and the t1/2 [14, 24] was 0.59 ± 0.2 h. The tmax [14, 24] was 1.75 ± 0.27 h, the “tmax of AZT” value ([14]; single oral dose of the named compound equivalent to 20 mg of AZT/kg) was 4 h and the “embryotoxic and teratogenic effects” value (pregnant female rats) was “neither embryotoxic nor teratogenic effects”. The “allergic effect in type III hypersensitivity reaction” value (guinea pigs [15]) was “no allergic effect”, the primary immune response (mice [16]; F1(CBAxC57BI6) mice, 332 mg/kg) was “reduced the primary immune response to a certain extent” and the “hypersensitivity of the decelerated type reaction” value (mice [16]; mice, 166 and 332 mg/kg) was “nor the hypersensitivity of the decelerated type reaction”. The “number of nuclear cells in spleen” value (mice [16]; mice, 166 and 332 mg/kg) was “affects neither the number of nuclear cells in spleen”, the accumulation in blood [17] was “gradual accumulation” and the “Т1/2 in canine whole blood” value [18] was over 24 h. For the same compound, the “AUC0–t” value [19] was 8020 ng·h/mL, the MRT [19] was 0.82 h and the Vss [19] was 0.37 L. For the same compound, the t1/2 [19] was 0.42 h, the СL [19] was 0.45 L/h and the “efficiency of penetration into cells, times lower than that of AZT” value (cultured cells) was 10–100 times. The “efficiency of penetration into cells, times lower than that of phosphazide” value (cultured cells) was “approximately 6 times”, the “half-life in 100% human blood serum” value [20] was “over 6 h” and the “dominant lethal mutations in mouse embryonic cells” value (mouse embryonic cells) was “nor affected the number of dominant lethal mutations”. The “mean lethal dose (LD50)” value (mice [21]; intraperitoneal administration to mice) was at least 5000 mg/kg and the “signs after single-dose administration at toxic doses” value (mice [21]; mice, 2000–50000 mg/kg) was “short-term agitation in animals replaced by distress, inertness and adynamia”.
